How the values were obtained:
[1] = test system: patients with gout and a history of major cardiovascular diseases; assay: eGFR over time by average serum uric acid concentration, analysis of clinical trial data; format: in vivo, human; conditions: for eGFR Mean (95% CI): allopurinol group
Description: In order to evaluate non-inferiority of febuxostat to allopurinol related to cardiovascular risk, a clinical trial was designed and proceeded.
A multicenter, randomized, double-blind non-inferiority trial was performed. The details of the clinical trial design have been published previously. An independent data and safety monitoring committee with access to unblinded data monitored the clinical trial. The statistical analysis for the data and the safety monitoring committee was performed by an independent statistical group (WebbWrites).
The patients were regarded as having a history of major cardiovascular diseases, if they had myocardial infarction, hospitalization for unstable angina, stroke, hospitalization for transient ischemic attack, peripheral vascular disease, or diabetes mellitus symptoms. All participants provided a prior informed consent form.
The patients were randomly assigned so that they received febuxostat or allopurinol administered once a day in a double-blind manner. The randomization was stratified according to the estimated creatinine clearance at baseline (patient group having an estimated creatinine clearance ≥60 ml per minute vs patient group having an estimated creatinine clearance ≥30 and <60 ml per minute).
The dose of allopurinol was modified according to a kidney function. The patients with the estimated creatinine clearance 60 ml or more per minute i) initially received allopurinol at a dose of 300 mg once a day, and the dose was increased in 100 mg increments monthly until the patient had the serum uric acid concentration of less than 6.0 mg per deciliter or the dosage of allopurinol was 600 mg once a day. The patient having the estimated creatinine clearance of 30 ml or more and less than 60 ml per minute initially received 200 mg of allopurinol, and then the dose was increased in 100 mg increments until the patient either had the serum uric acid concentration of less than 6.0 mg per deciliter or was receiving the allopurinol dose of 400 mg once daily.
The dose of febuxostat was not modified according to the kidney function. The patients who were randomly assigned to receive febuxostat initially received 40 mg once a daily, and continued to receive the same dosage if the serum uric acid concentration was less than 6.0 mg per deciliter after 2 weeks of the treatment. If the serum uric acid concentration was higher than 6.0 mg per deciliter at 2nd week visit, the dose of febuxostat was increased to 80 mg once daily for the remainder of the trial.
During the period, the administration of a double-blind and double-dummy trial medications was guided by an interactive voice-response system which was a procedure to prevent unblinding for the patients whose dose was not adjusted. After completing dose adjustment, the urate level was concealed from the investigators, and the treatment was managed throughout the trial using the interactive voice-response system.
Outpatient visits were conducted according to the following schedule: during screening and randomization, and at 2, 4, 6, 8, 10, 12, and 24 weeks after the randomization, and every 6 months during the subsequent years of the trial. The patients with reduced kidney function or, the patients aged 65 years or older at randomization were visited at 9 and 15 months for monitoring the serum chemical profile. If the patient agreed to be monitored, but would not return for study visit, telephone contact was made, but such method was not preferred or recommended.
In order to confirm the effect of allopurinol and febuxostat on the kidney disease, the data obtained in the clinical trial described above was analyzed.

[2] = cited from earlier work

For Oc1ncnc2[nH]ncc12 [allopurinol], the “eGFR Mean (95% CI)” value ([1]; No congestive cardiac failure history, Average UA <6, Baseline) was 66.85 (65.82-67.88) ml/min/1.73 m^2, the “eGFR Mean (95% CI)” value ([1]; No congestive cardiac failure history, Average UA <6, Month 3) was 67.32 (66.24-68.40) ml/min/1.73 m^2 and the “eGFR Mean (95% CI)” value ([1]; No congestive cardiac failure history, Average UA <6, Month 12) was 68.74 (67.63-69.86) ml/min/1.73 m^2. The “eGFR Mean (95% CI)” value ([1]; No congestive cardiac failure history, Average UA <6, Month 18) was 68.64 (67.39-69.88) ml/min/1.73 m^2, the “eGFR Mean (95% CI)” value ([1]; No congestive cardiac failure history, Average UA <6, Month 24) was 68.73 (67.42-70.03) ml/min/1.73 m^2 and the “eGFR Mean (95% CI)” value ([1]; No congestive cardiac failure history, Average UA <6, Month 30) was 69.45 (68.01-70.89) ml/min/1.73 m^2. The “eGFR Mean (95% CI)” value ([1]; No congestive cardiac failure history, Average UA <6, Month 36) was 68.02 (66.49-69.55) ml/min/1.73 m^2, the “eGFR Mean (95% CI)” value ([1]; No congestive cardiac failure history, Average UA <6, Month 42) was 67.59 (65.93-69.25) ml/min/1.73 m^2 and the “eGFR Mean (95% CI)” value ([1]; No congestive cardiac failure history, Average UA <6, Month 48) was 68.44 (66.56-70.31) ml/min/1.73 m^2. The “eGFR Mean (95% CI)” value ([1]; No congestive cardiac failure history, Average UA <6, Month 54) was 67.90 (65.79-70.00) ml/min/1.73 m^2, the “eGFR Mean (95% CI)” value ([1]; No congestive cardiac failure history, Average UA <6, Month 60) was 68.53 (66.05-71.01) ml/min/1.73 m^2 and the “eGFR Mean (95% CI)” value ([1]; No congestive cardiac failure history, Average UA <6, Week 2) was 66.55 (65.48-67.62) ml/min/1.73 m^2. The “eGFR Mean (95% CI)” value ([1]; No congestive cardiac failure history, Average UA ≥6, Baseline) was 66.51 (64.92-68.09) ml/min/1.73 m^2, the “eGFR Mean (95% CI)” value ([1]; No congestive cardiac failure history, Average UA ≥6, Month 12) was 66.77 (65.07-68.46) ml/min/1.73 m^2 and the “eGFR Mean (95% CI)” value ([1]; No congestive cardiac failure history, Average UA ≥6, Month 18) was 66.07 (64.15-67.99) ml/min/1.73 m^2. For the same compound, the “eGFR Mean (95% CI)” value ([1]; No congestive cardiac failure history, Average UA ≥6, Month 24) was 65.54 (63.37-67.72) ml/min/1.73 m^2, the “eGFR Mean (95% CI)” value ([1]; No congestive cardiac failure history, Average UA ≥6, Month 30) was 65.30 (62.89-67.70) ml/min/1.73 m^2 and the “eGFR Mean (95% CI)” value ([1]; No congestive cardiac failure history, Average UA ≥6, Month 36) was 65.27 (62.40-68.13) ml/min/1.73 m^2. The “eGFR Mean (95% CI)” value ([1]; No congestive cardiac failure history, Average UA ≥6, Month 42) was 63.38 (60.35-66.41) ml/min/1.73 m^2, the “eGFR Mean (95% CI)” value ([1]; No congestive cardiac failure history, Average UA ≥6, Month 48) was 63.38 (59.80-66.95) ml/min/1.73 m^2 and the “eGFR Mean (95% CI)” value ([1]; No congestive cardiac failure history, Average UA ≥6, Month 54) was 66.44 (62.69-70.18) ml/min/1.73 m^2. For the same compound, the “eGFR Mean (95% CI)” value ([1]; No congestive cardiac failure history, Average UA ≥6, Month 60) was 63.14 (59.01-67.28) ml/min/1.73 m^2, the “eGFR Mean (95% CI)” value ([1]; No congestive cardiac failure history, Average UA ≥6, Week 2) was 66.92 (65.28-68.56) ml/min/1.73 m^2 and the “eGFR Mean (95% CI)” value ([1]; SBP <130, Average UA <6, Baseline) was 65.08 (63.67-66.50) ml/min/1.73 m^2. The “eGFR Mean (95% CI)” value ([1]; SBP <130, Average UA <6, Month 3) was 66.19 (64.73-67.66) ml/min/1.73 m^2, the “eGFR Mean (95% CI)” value ([1]; SBP <130, Average UA <6, Month 6) was 66.44 (64.96-67.92) ml/min/1.73 m^2 and the “eGFR Mean (95% CI)” value ([1]; SBP <130, Average UA <6, Month 12) was 67.55 (66.04-69.06) ml/min/1.73 m^2. For the same compound, the “eGFR Mean (95% CI)” value ([1]; SBP <130, Average UA <6, Month 18) was 67.41 (65.73-69.08) ml/min/1.73 m^2, the “eGFR Mean (95% CI)” value ([1]; SBP <130, Average UA <6, Month 24) was 67.26 (65.46-69.07) ml/min/1.73 m^2 and the “eGFR Mean (95% CI)” value ([1]; SBP <130, Average UA <6, Month 30) was 68.14 (66.20-70.08) ml/min/1.73 m^2. For the same compound, the “eGFR Mean (95% CI)” value ([1]; SBP <130, Average UA <6, Month 36) was 67.41 (65.30-69.51) ml/min/1.73 m^2, the “eGFR Mean (95% CI)” value ([1]; SBP <130, Average UA <6, Month 42) was 67.67 (65.45-69.89) ml/min/1.73 m^2 and the “eGFR Mean (95% CI)” value ([1]; SBP <130, Average UA <6, Month 48) was 67.55 (64.98-70.13) ml/min/1.73 m^2. The “eGFR Mean (95% CI)” value ([1]; SBP <130, Average UA <6, Month 54) was 67.54 (64.81-70.27) ml/min/1.73 m^2, the “eGFR Mean (95% CI)” value ([1]; SBP <130, Average UA <6, Month 60) was 66.85 (63.63-70.06) ml/min/1.73 m^2 and the “eGFR Mean (95% CI)” value ([1]; SBP <130, Average UA <6, Week 2) was 65.12 (63.70-66.55) ml/min/1.73 m^2. For the same compound, the “eGFR Mean (95% CI)” value ([1]; SBP <130, Average UA ≥6, Baseline) was 61.00 (58.76-63.25) ml/min/1.73 m^2, the “eGFR Mean (95% CI)” value ([1]; SBP <130, Average UA ≥6, Month 3) was 62.77 (60.42-65.12) ml/min/1.73 m^2 and the “eGFR Mean (95% CI)” value ([1]; SBP <130, Average UA ≥6, Month 6) was 62.65 (60.33-64.97) ml/min/1.73 m^2. For the same compound, the “eGFR Mean (95% CI)” value ([1]; SBP <130, Average UA ≥6, Month 12) was 62.21 (59.86-64.55) ml/min/1.73 m^2, the “eGFR Mean (95% CI)” value ([1]; SBP <130, Average UA ≥6, Month 18) was 62.34 (59.64-65.04) ml/min/1.73 m^2 and the “eGFR Mean (95% CI)” value ([1]; SBP <130, Average UA ≥6, Month 24) was 60.72 (57.61-63.83) ml/min/1.73 m^2. For the same compound, the “eGFR Mean (95% CI)” value ([1]; SBP <130, Average UA ≥6, Month 30) was 62.43 (59.06-65.81) ml/min/1.73 m^2, the “eGFR Mean (95% CI)” value ([1]; SBP <130, Average UA ≥6, Month 36) was 61.08 (57.19-64.97) ml/min/1.73 m^2 and the “eGFR Mean (95% CI)” value ([1]; SBP <130, Average UA ≥6, Month 42) was 60.98 (56.66-65.31) ml/min/1.73 m^2. The “eGFR Mean (95% CI)” value ([1]; SBP <130, Average UA ≥6, Month 48) was 64.66 (59.55-69.76) ml/min/1.73 m^2, the “eGFR Mean (95% CI)” value ([1]; SBP <130, Average UA ≥6, Month 54) was 64.80 (59.14-70.46) ml/min/1.73 m^2 and the “eGFR Mean (95% CI)” value ([1]; SBP <130, Average UA ≥6, Month 60) was 65.01 (58.65-71.37) ml/min/1.73 m^2. For the same compound, the “eGFR Mean (95% CI)” value ([1]; SBP <130, Average UA ≥6, Week 2) was 62.24 (60.01-64.47) ml/min/1.73 m^2, the “prevention or treatment of chronic kidney disease when serum uric acid maintained below 6” value ([1]; blood glucose ≥126 mg/dl, DBP ≤80 mm/Hg, SBP ≤130 mm/Hg, or no congestive cardiac failure) was “effectively prevented or treated” and the drug-induced nephrotoxicity ([2]; Am Fam Physician. 2008 September) was “causes acute interstitial nephritis”. The “effect on kidney function” value ([2]; Kaohsiung J Med Sci. 2005 May;21(5):228-32) was “worsens kidney function” and the “acute renal failure reported more often” value ([2]; post-marketing study, Arthritis Research & Therapy volume 21, Article number: 229 (2019)) was 3.3 times.
